{"source": "patent US20110071142A1", "about": "“IDENTIFICATION AND USE OF SMALL MOLECULES TO MODULATE TRANSCRIPTION FACTOR FUNCTION AND TO TREAT TRANSCRIPTION FACTOR ASSOCIATED DISEASES” (BETH ISRAEL DEACONESS MEDICAL CENTER, priority 2007, published 2011)", "key": {"Ets-1 transactivation": {"test_system": "Ets-1 transactivation", "test": "Reporter gene transactivation assays (transient transfection)", "type": "cell-based, Human", "method": "Several downstream targets of Ets-1 including the MCP-1 gene, PAI1, and Flt-1 (49, 142) have been identified. To further define the specificity of small molecules that inhibit DNA binding of Ets-1 in EMSAs, their ability is evaluated with regard to inhibiting transactivation of the MCP-1, PAI-1, and Flt-1 promoters by Ets-1, without affecting the basal activity of the promoter. As controls, the endothelial-specific promoters Tie1 and Tie2 are used, that have been previously shown as targets of the Ets factors NERF2 and Elf-1, but not Ets-1 or Ets-2 (142, 146). The promoters of these genes have previously been subcloned into the PGL2 luciferase reporter (Promega). Similarly, we have previously subcloned the\ncDNAs encoding the ETS factors Ets-1, Ets-2, NERF2, and Elf-1 into the PCI mammalian expression plasmid.\nHuman embryonic kidney cells (HEK 293) are cultured as previously described (147). HEK 293 cells are kidney epithelial cells that express low basal levels of Ets-1, and are easily transfected. Cotransfections of 2×10^5 HEK 293 cells are carried out with 0.3 μg of the reporter gene construct DNA and 0.15 μg of the mammalian expression vector encoding the selected Ets factors using 4 μl LipofectAMINE (Invitrogen, San Diego, Calif.) as described (148). […]"}, "[1]": {"test_system": "Ets-1 mediated gene expression", "test": "Ets-1 mediated gene expression in HEK293 cells", "type": "cell-based, Human"}, "Ets-1-DNA interaction": {"target": "T1, Ets-1-DNA interaction (Homo sapiens, UniProt P14921)", "T1 construct": "host or cells: cell-free in vitro translation, rabbit reticulocyte lysate", "T1 sequence (P14921 1-441)": "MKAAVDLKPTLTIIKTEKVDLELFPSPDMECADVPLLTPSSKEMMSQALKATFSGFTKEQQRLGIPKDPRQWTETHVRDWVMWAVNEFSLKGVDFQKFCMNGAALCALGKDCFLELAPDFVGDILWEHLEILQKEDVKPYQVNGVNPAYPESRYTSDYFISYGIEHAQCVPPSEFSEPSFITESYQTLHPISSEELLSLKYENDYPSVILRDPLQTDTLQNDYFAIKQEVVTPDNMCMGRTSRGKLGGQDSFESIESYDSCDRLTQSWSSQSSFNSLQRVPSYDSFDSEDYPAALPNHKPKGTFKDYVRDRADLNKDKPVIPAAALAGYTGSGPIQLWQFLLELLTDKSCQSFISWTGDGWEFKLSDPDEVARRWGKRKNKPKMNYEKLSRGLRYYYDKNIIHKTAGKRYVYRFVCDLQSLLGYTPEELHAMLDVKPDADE", "test": "Electrophoretic mobility shift assay (EMSA) of Ets-1 DNA binding", "method": "Initially it is determined whether the identified small molecule “hits” interfere with Ets-1-DNA binding using electrophoretic mobility shift assays (EMSAs). These are performed as described previously (142). In brief, in vitro translated Ets-1 protein is generated using a rabbit reticulolysate system (Promega) and a mammalian expression plasmid encoding the Ets-1 protein. 1 μl of the in vitro translation reaction and 0.1-0.2\nng [32P]dATP-labeled double-stranded oligonucleotide probe (5,000-10,000 cpm) will be run on 4% polyacrylamide gels containing 0.5×TBE buffer. […] The small molecules identified are initially evaluated at a concentration of 1 mM, which is the concentration used in high throughput fraganomic approaches for evaluating the interaction of weak-binding small molecules (143, 144). Those small molecules that inhibit the Ets-1-DNA interaction will be re-evaluated over a concentration range of 10 μM-1 mM. Solutions containing DMSO alone will be used as a vehicle control. To ensure the small molecule is specifically targeting the Ets-1-DNA interface and not interacting non-specifically with the DNA, a non-specific promoter is included as well as a control small molecule that is not selected as a “hit” by our HTD screen. To further confirm the molecular specificity of these small molecules for targeting Ets-1, EMSAs will be performed with other members of the ETS family. Ethidium bromide displacement assays could also be used to confirm that the small molecules are not nonspecifically targeting the DNA sequence (145)."}, "Ets-1 expression": {"test_system": "Ets-1 expression", "test": "Real time PCR of IL-1 induced Ets-1 expression in HUVECs", "type": "cell-based, Human", "settings": "10 μM, preincubated 1 h, IL-1 10 ng/ml, 2 hr", "method": "(§1) SYBR Green I-based real-time PCR is carried out on an Opticon Monitor (MJ Research, Inc, Waltham, Mass.). All PCR mixtures contain PCR buffer [final concentration: 10 mM Tris-HCl (pH9.0), 50 mM KCl, 2 mM MgCl2 and 0.1% TritonX-100], 250 μM deoxy-NTP (Roche), 0.5 μM of each PCR primer, 0.5×SYBR Green I,\n(§2) 5% DMSO, and 1U Taq DNA polymerase (Promega, Madison, Wis.) with 2 μl cDNA in a 25 μl final volume of reaction mix. Then, the fluorescence signal is measured immediately following incubation at 78° C. for 5 s that follows each extension step, which eliminates possible primer dimer detection. At the end of PCR cycles, a melting curve will be generated to identify specificity of the PCR product. For each run, serial dilutions of human GAPDH plasmids are used as standards for quantitative measurement of the amount of amplified cDNA. For normalization of each sample, GAPDH primers are used to measure the GAPDH cDNA levels. Cytotoxicity Evaluation of “hit” Compounds Using MTS Assay\n(§3) Total RNA was isolated for real time PCR to measure Ets-1 expression levels as well as the IL-1 inducible, Ets-1\n(§4) dependent MCP-1 expression levels, following stimulation for 1, 2, 4, 6 and 12 hours. IL-1 induced Ets-1 expression ˜4 fold at 2 hr, however compound #28 reduced Ets-1 induction by greater than 50% during this time frame. […]"}, "MCP-1 expression": {"test_system": "MCP-1 expression", "test": "Real time PCR of IL-1 inducible, Ets-1 dependent MCP-1 expression in HUVECs", "type": "cell-based, Human", "settings": "10 μM, preincubated 1 h, IL-1 10 ng/ml", "method": "as §1, §2, §3, §4"}}, "note": "Where two headings read alike, the source gives them in different places."}
{"molecule": "Nc1ccccc1SC(C[N+](=O)[O-])c1ccc2c(c1)OCO2", "note": "(stereo not shown) [Compound 28, 2-{[1-(1,3-benzodioxol-5-yl)-2-nitroethyl]thio}aniline]", "values": [{"measurement": "inhibition of transactivation assays", "setting": "Ets-1 transactivation", "value": 8, "unit": "fold"}, {"measurement": "decrease of Ets-1 mediated gene expression", "setting": "[1]", "value": "50-60%"}, {"measurement": "inhibition of Ets-1 DNA binding", "setting": "Ets-1-DNA interaction", "value": "inhibits Ets-1 DNA binding"}, {"measurement": "inhibits the Ets-1-DNA interaction, concentration range as estimated using EMSAs", "setting": "Ets-1-DNA interaction", "value": "low uM range"}, {"measurement": "inhibition of Ets-1 DNA binding", "setting": "Ets-1-DNA interaction; FIG. 8 legend: HUVECs preincubated with 10 μM", "value": "inhibits Ets-1 DNA binding"}, {"measurement": "reduction of IL-1 induced Ets-1 induction", "setting": "Ets-1 expression", "value": "greater than 50%"}, {"measurement": "reduction of IL-1 induced MCP-1 expression", "setting": "MCP-1 expression", "value": "greater than 40%"}]}
